Assay results published in patent US10052289B2, “Composition comprising an active agent with low aqueous solubility” (Flamel Ireland Limited, priority 2008, dated 2018).
In brackets after ≈: the same amount, converted by molar mass. Several values for one entry are separate records, joined by “and”; a condition that tells them apart may be missing. Equal entries are not always repeated. Where two headings read alike, the source gives them in different places.

Legend:
[1] = pH 7.0, ambient temperature
[2] = physchem; conditions: pH 7, aqueous buffer, thermodynamic from solid, solubility in the absence of polymer
Method: 40 to 50 mg of carvedilol base are introduced into a 15 ml Falcon tube. 5 ml of aqueous solution of concentrated POM polymer at 20 mg/ml and at pH 7.0 are added. […] After this stage, the preparation is centrifuged at 9,000 rpm for 30 minutes in order to eliminate any undissolved crystals. […] It is diluted 1,000 times with a phosphate buffer at pH 7.0. The concentration of solubilized carvedilol is determined by UV spectrometry (at a wavelength of 240 nm and using a cell with a 1 cm optical path).

[3] = physchem; conditions: concentrated aqueous POM polymer solution, pH 7, aqueous with cosolvent or surfactant or cyclodextrin, thermodynamic from solid, Total concentration of solubilized active ingredient, ambient temperature
[4] = physchem; conditions: thermodynamic from solid
[5] = Solubilization of ketoconazole in concentrated POM polymer solution (visual check); format: physicochemical; conditions: for solubility: pH 7, aqueous with cosolvent or surfactant or cyclodextrin, thermodynamic from solid
[6] = remark: listed apart in the source
Method: The preparation is centrifuged at 9,000 rpm for 30 minutes.

[7] = physchem; conditions: for solubility at […]: 37 °C, pH 7, aqueous buffer, thermodynamic from solid
Method: 0.49 mg of paclitaxel (Bioxel) is introduced into a 2 liter volumetric flask. The flask is topped up to the fill line with a 0.05 M phosphate buffer at pH 7.0. The preparation is stirred using a magnetic bar, at 37° C.
The preparation is then placed in an ultrasonic bath for 60 min at ambient temperature.

[8] = background statement; cited from earlier work
[9] = Solubilization of paclitaxel in concentrated aqueous POM polymer solution (visual check); format: physicochemical; conditions: for solubility: concentrated aqueous POM polymer solution
Method: 21.21 mg of paclitaxel (Bioxel) are introduced into a pill-box.
39.68 mg of paclitaxel (Bioxel) are introduced into a pill-box.
35.05 mg of paclitaxel (Bioxel) are introduced into a pill-box.

[10] = Solubilization of paclitaxel in aqueous POM polymer solution at 20 mg/ml (visual check); format: physicochemical; conditions: for Solubilized active ingredient in μmol per g of polymer / Total concentration of active ingredient solibilized for 20 g/l of polymer: 20 g/l, pH 7.0, ambient temperature
Method: 4.99 mg of paclitaxel (Bioxel) are introduced into a pill-box.
10.33 mg of paclitaxel (Bioxel) are introduced into a pill-box.
7 mg of paclitaxel (Bioxel) are introduced into a pill-box.

[11] = sodium polyglutamate DP=100, 10% VE, 52.8 mg/ml
[12] = sodium polyglutamate DP=100, 15% VE, 84.6 mg/ml
[13] = sodium polyglutamate DP=100, 20% VE, 156 mg/ml
[14] = sodium polyglutamate DP=100, 10% VE, 52.8 mg/ml, pH 7.0, ambient temperature
[15] = sodium polyglutamate DP=100, 15% VE, 84.6 mg/ml, pH 7.0, ambient temperature
[16] = sodium polyglutamate DP=100, 20% VE, 156 mg/ml, pH 7.0, ambient temperature
[17] = sodium polyglutamate DP=100, 30% VE, 53.5 mg/ml, pH 7.0, ambient temperature
[18] = sodium polyglutamate DP=100, 5% VE
[19] = sodium polyglutamate DP=100, 10% VE
[20] = sodium polyglutamate DP=100, 15% VE
[21] = sodium polyglutamate DP=100, 20% VE

## COc1ccccc1OCCNCC(O)COc1cccc2[nH]c3ccccc3c12 (centres unmarked) [carvedilol base, carvedilol]
pH 7
  Solubilized active ingredient in μmol per g of polymer: 28 μmol per g of polymer
  Total concentration of solubilized active ingredient for 20 g/l of polymer: 0.000565 mol/L
[1]; [11]
  Solubilized active ingredient in μmol per g of polymer: 638 μmol per g of polymer
[1]; [12]
  Solubilized active ingredient in μmol per g of polymer: 474 μmol per g of polymer
[1]; [13]
  Solubilized active ingredient in μmol per g of polymer: 543 μmol per g of polymer
[2]
  solubility at 90 min: 0.12 mM (≈ 48.8 µg/mL)
[3]; [11]
  solubility: 33.7 mM (≈ 13700 µg/mL)
[3]; [12]
  solubility: 40.1 mM (≈ 16300 µg/mL)
[3]; [13]
  solubility: 84.6 mM (≈ 34400 µg/mL)

## CC(=O)N1CCN(c2ccc(OCC3COC(Cn4ccnc4)(c4ccc(Cl)cc4Cl)O3)cc2)CC1 (centres unmarked) [ketoconazole]
[4]; aqueous POM polymer solution, pH 7, aqueous with cosolvent or surfactant or cyclodextrin, Total concentration of solubilized active ingredient for 20 g/l of polymer, sodium polyglutamate DP=100, 2% VE, 20 g/l, pH 7.0, ambient temperature
  solubility: 0.565 mM (≈ 300 µg/mL)
[4]; aqueous POM polymer solution, pH 7, aqueous with cosolvent or surfactant or cyclodextrin, Total concentration of solubilized active ingredient for 20 g/l of polymer, sodium polyglutamate DP=100, 5% VE, 20 g/l, pH 7.0, ambient temperature
  solubility: 2.54 mM (≈ 1350 µg/mL)
[4]; aqueous POM polymer solution, pH 7, aqueous with cosolvent or surfactant or cyclodextrin, Total concentration of solubilized active ingredient for 20 g/l of polymer, sodium polyglutamate DP=100, 10% VE, 20 g/l, pH 7.0, ambient temperature
  solubility: 7.16 mM (≈ 3810 µg/mL)
[4]; aqueous POM polymer solution, pH 7, aqueous with cosolvent or surfactant or cyclodextrin, Total concentration of solubilized active ingredient for 20 g/l of polymer, sodium polyglutamate DP=100, 15% VE, 20 g/l, pH 7.0, ambient temperature
  solubility: 7.16 mM (≈ 3810 µg/mL)
[4]; aqueous POM polymer solution, pH 7, aqueous with cosolvent or surfactant or cyclodextrin, Total concentration of solubilized active ingredient for 20 g/l of polymer, sodium polyglutamate DP=100, 20% VE, 20 g/l, pH 7.0, ambient temperature
  solubility: 6.97 mM (≈ 3700 µg/mL)
[4]; aqueous medium without polymer, pH 7, aqueous buffer, solubility in the absence of polymer, pH 7.0, absence of polymer
  solubility: ~0.02 mM (≈ 10.6 µg/mL)
[5]; concentrated aqueous POM polymer solution, concentrated polymers DP=100 containing between 15% and 20% vitamin E, read-out: concentrations of solubilized active ingredient
  solubility: > 30 mM
[5]; concentrated aqueous POM polymer solution, sodium polyglutamate DP=100, 15% VE, 84.6 mg/ml, pH 7.0, ambient temperature, read-out: Total concentration of solubilized active ingredient
  solubility: 31.1 mM (≈ 16500 µg/mL)
[5]; sodium polyglutamate DP=100, 10% VE, 52.8 mg/ml, pH 7.0, ambient temperature, read-out: Total concentration of solubilized active ingredient
  solubility: 16 mM (≈ 8500 µg/mL)
[5]; sodium polyglutamate DP=100, 20% VE, 156 mg/ml, pH 7.0, ambient temperature, read-out: Total concentration of solubilized active ingredient
  solubility: 53.5 mM (≈ 28400 µg/mL)
[5]; sodium polyglutamate DP=100, 30% VE, 53.5 mg/ml, pH 7.0, ambient temperature, read-out: Total concentration of solubilized active ingredient
  solubility: 14.1 mM (≈ 7490 µg/mL)
[5]; [14]
  Solubilized active ingredient in μmol per g of polymer: 303 μmol per g of polymer
[5]; [15]
  Solubilized active ingredient in μmol per g of polymer: 367 μmol per g of polymer
[5]; [16]
  Solubilized active ingredient in μmol per g of polymer: 343 μmol per g of polymer
[5]; [17]
  Solubilized active ingredient in μmol per g of polymer: 264 μmol per g of polymer
Sodium polyglutamate DP=100, 2% VE, 20 g/l, pH 7.0, ambient temperature
  Solubilized active ingredient in μmol per g of polymer: 28 μmol per g of polymer
Sodium polyglutamate DP=100, 5% VE, 20 g/l, pH 7.0, ambient temperature
  Solubilized active ingredient in μmol per g of polymer: 127 μmol per g of polymer
Sodium polyglutamate DP=100, 10% VE, 20 g/l, pH 7.0, ambient temperature
  Solubilized active ingredient in μmol per g of polymer: 358 μmol per g of polymer
Sodium polyglutamate DP=100, 15% VE, 20 g/l, pH 7.0, ambient temperature
  Solubilized active ingredient in μmol per g of polymer: 358 μmol per g of polymer
Sodium polyglutamate DP=100, 20% VE, 20 g/l, pH 7.0, ambient temperature
  Solubilized active ingredient in μmol per g of polymer: 348 μmol per g of polymer
[6]
  factor of increase of solubility: approximately 200

## CC(=O)O[C@H]1C(=O)[C@@]2(C)[C@H]([C@H](OC(=O)c3ccccc3)[C@]3(O)C[C@H](OC(=O)[C@H](O)[C@@H](NC(=O)c4ccccc4)c4ccccc4)C(C)=C1C3(C)C)[C@]1(OC(C)=O)CO[C@@H]1C[C@@H]2O [paclitaxel]
[7]; 0.49 mg paclitaxel in 2 liter 0.05 M phosphate buffer pH 7.0, after stirring, ultrasonic bath 60 min at ambient temperature
  appearance after ultrasonic treatment: A few grains of powder are still undissolved
[7]; 0.49 mg paclitaxel in 2 liter 0.05 M phosphate buffer pH 7.0, magnetic stirring […] at 37° C.
  appearance after magnetic stirring: a few grains of undissolved powder remain
[7]; solubility in an aqueous buffer
  solubility at […]: < 0.25 µg/mL and < 0.3 µM
[7]; solubility of the active ingredient measured without polymer
  solubility at […]: 0.0003 mM (≈ 0.256 µg/mL)
[8]
  aqueous solubility: less than 1 μg/ml
[9]; 90 mg/ml polyglutamate 20% VE
  μmol of paclitaxel per gram of POM polymer: 49 μmol per gram of POM polymer
[9]; aqueous polyglutamate (POM) polymer solution, pH 7, aqueous with cosolvent or surfactant or cyclodextrin, thermodynamic from solid, 90 mg/ml polyglutamate 20% VE
  solubility at 5 h: 3500 to 4000 µg/mL (≈ 4100 to 4680 µM)
[9]; pH 7, aqueous with cosolvent or surfactant or cyclodextrin, thermodynamic from solid, concentrated polymers DP=100 containing between 15% and 20% vitamin E, read-out: concentrations of solubilized active ingredient
  solubility: > 3 mM
[9]; pH 7, aqueous with cosolvent or surfactant or cyclodextrin, thermodynamic from solid, sodium polyglutamate DP=100, 10% VE, 52.8 mg/ml, pH 7.0, ambient temperature, read-out: Total concentration of solubilized active ingredient
  solubility: 1.5 mM (≈ 1280 µg/mL)
[9]; pH 7, aqueous with cosolvent or surfactant or cyclodextrin, thermodynamic from solid, sodium polyglutamate DP=100, 15% VE, 84.6 mg/ml, pH 7.0, ambient temperature, read-out: Total concentration of solubilized active ingredient
  solubility: 3.5 mM (≈ 2990 µg/mL)
[9]; pH 7, aqueous with cosolvent or surfactant or cyclodextrin, thermodynamic from solid, sodium polyglutamate DP=100, 20% VE, 156 mg/ml, pH 7.0, ambient temperature, read-out: Total concentration of solubilized active ingredient
  solubility: 6.4 mM (≈ 5470 µg/mL)
[9]; pH 7, aqueous with cosolvent or surfactant or cyclodextrin, thermodynamic from solid, sodium polyglutamate DP=100, 30% VE, 53.5 mg/ml, pH 7.0, ambient temperature, read-out: Total concentration of solubilized active ingredient
  solubility: < 1.4 mM
[9]; [14]
  Solubilized active ingredient in μmol per g of polymer: 29 μmol per g of polymer
[9]; [15]
  Solubilized active ingredient in μmol per g of polymer: 42 μmol per g of polymer
[9]; [16]
  Solubilized active ingredient in μmol per g of polymer: 41 μmol per g of polymer
[9]; [17]
  Solubilized active ingredient in μmol per g of polymer: <26 μmol per g of polymer
[10]; 20 mg/ml polyglutamate DP=100, 20% VE
  μmol of paclitaxel per gram of POM polymer: 47 μmol per gram of POM polymer
[10]; aqueous polyglutamate (POM) polymer solution, pH 7, aqueous with cosolvent or surfactant or cyclodextrin, thermodynamic from solid, 20 mg/ml polyglutamate DP=100, 20% VE
  solubility at […]: ~800 µg/mL (≈ 937 µM)
[10]; [18]
  Solubilized active ingredient in μmol per g of polymer: 12 μmol per g of polymer
  Total concentration of active ingredient solibilized for 20 g/l of polymer: 0.00023 mol/L
[10]; [19]
  Solubilized active ingredient in μmol per g of polymer: 29 μmol per g of polymer
  Total concentration of active ingredient solibilized for 20 g/l of polymer: 0.00059 mol/L
[10]; [20]
  Solubilized active ingredient in μmol per g of polymer: 47 μmol per g of polymer
  Total concentration of active ingredient solibilized for 20 g/l of polymer: 0.00094 mol/L
[10]; [21]
  Solubilized active ingredient in μmol per g of polymer: 47 μmol per g of polymer
  Total concentration of active ingredient solibilized for 20 g/l of polymer: 0.00094 mol/L
